In patent US7462600B2, “Macrolides” (Pfizer Inc, priority 2004, dated 2008):
In brackets after ≈: the same amount, converted by molar mass. Like-named read-outs stand apart in the source and are kept apart here.

How the values were obtained:
Format in all cases: cell-based
[1] = tested on: Haemophilus influenzae 1218; assay: MIC, microtiter broth dilution (NCCLS M100-S14), H. influenzae 1218 (susceptible)
In short: (§1)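 Broth microdilution MICs in microtiter trays, run and interpreted per NCCLS M100-S14. Compounds were dissolved in DMSO as 40 mg/ml stocks.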

[2] = tested on: Streptococcus pneumoniae 1175; settings: microtiter broth dilution
In short: as §1

[3] = tested on: Streptococcus pneumoniae 1095; settings: microtiter broth dilution
In short: as §1

[4] = tested on: Streptococcus pyogenes 1079; assay: MIC, microtiter broth dilution (NCCLS M100-S14), S. pyogenes 1079 (ermB)
In short: as §1

[5] = tested on: Streptococcus pneumoniae 1016; assay: MIC, microtiter broth dilution (NCCLS M100-S14), S. pneumoniae 1016 (susceptible)
In short: as §1

[6] = H. influenzae 1218 (susceptible)
[7] = S. pneumoniae 1016 (susceptible)

| Compound | MIC H. influenzae 1218 [1, 6] | MIC S. pneumo. 1175 ([2]; S. pneumoniae 1175 (mefA)) | MIC S. pneumo. 1095 ([3]; S. pneumoniae 1095 (ermB)) | MIC S. pyogenes 1079 ([4]; S. pyogenes 1079 (ermB)) | MIC S. pneumo. 1016 [5, 7] | MIC H. influenzae 1218 ([1]; Haemophilus influenzae 1218) | MIC S. pneumo. 1175 ([2]; Streptococcus pneumoniae 1175) | MIC S. pneumo. 1095 ([3]; Streptococcus pneumoniae 1095) | MIC S. pyogenes 1079 ([4]; Streptococcus pyogenes 1079) | MIC S. pneumo. 1016 ([5]; Streptococcus pneumoniae 1016) |
| --- | --- | --- | --- | --- | --- | --- | --- | --- | --- | --- |
| CC[C@H]1OC(=O)[C@H](C)C(=O)[C@H](C)[C@@H](O[C@@H]2O[C@H](C)C[C@H](N(C)C)[C@H]2O)[C@](C)(OC)C[C@@H](C)C(=O)[C@H](C)[C@H]2N(CC3(O)CN(C(=O)c4cn5ccccc5n4)C3)C(=O)O[C@]12C.O=CO [7.29] | 1 µg/mL | 8 µg/mL | 0.25 µg/mL | >64.00 µg/mL | <0.06 µg/mL | – | – | – | – | – |
| CCC1OC(=O)C(C)C(=O)C(C)C(OC2OC(C)CC(N(C)C)C2O)C(C)(OC)CC(C)C(=O)C(C)C2N(CC3CN(C(=O)c4ccnc5ccccc45)C3)C(=O)OC12C.O=CO (stereo not drawn) [4.37] | – | – | – | – | – | 0.5 µg/mL | <0.06 µg/mL | 0.25 µg/mL | >64.00 µg/mL | <0.06 µg/mL |
| CCC1OC(=O)C(C)C(=O)C(C)C(OC2OC(C)CC(N(C)C)C2O)C(C)(OC)CC(C)C(=O)C(C)C2N(C3CN(Cc4ccc(Cl)cc4Cl)C3)C(=O)OC12C (stereo not drawn) [Example 1.103, 3-descladinosyl-11,12-dideoxy-6-O-methyl-3-oxo-12,11-(oxycarbonyl-(1-(2,4-dichlorobenzene-1-methyl)-azetidin-3-yl)-imino)-erythromycin A] | – | – | – | – | – | 0.25 µg/mL (≈ 0.302 µM) | 0.125 µg/mL (≈ 0.151 µM) | <0.063 µg/mL | 16 µg/mL (≈ 19.4 µM) | <0.063 µg/mL |
| CC[C@H]1OC(=O)[C@H](C)C(=O)[C@H](C)[C@@H](O[C@@H]2O[C@H](C)C[C@H](N(C)C)[C@H]2O)[C@](C)(OC)C[C@@H](C)C(=O)[C@H](C)[C@H]2N(CC3(O)CN(C(=O)c4cc5ccncc5[nH]4)C3)C(=O)O[C@]12C [7.27] | 1 µg/mL (≈ 1.19 µM) | 1 µg/mL (≈ 1.19 µM) | <0.06 µg/mL | >64.00 µg/mL | <0.06 µg/mL | – | – | – | – | – |
| CCC1OC(=O)C(C)C(=O)C(C)C(OC2OC(C)CC(N(C)C)C2O)C(C)(OC)CC(C)C(=O)C(C)C2N(CC3CCN(Cc4cnc(-c5ccccc5)[nH]4)CC3)C(=O)OC12C (stereo not drawn) [15.08] | 2 µg/mL (≈ 2.31 µM) | 1 µg/mL (≈ 1.15 µM) | >64.00 µg/mL | >64.00 µg/mL | <0.06 µg/mL | – | – | – | – | – |
| 3-descladinosyl-11,12-dideoxy-6-O-methyl-3-oxo-12,11-(oxycarbonyl-(1-((isoquinolin-4-yl)-methyl)-azetidin-3-yl)-imino)-erythromycin A [Example 1.30] | – | – | – | – | – | 1 µg/mL | <0.06 µg/mL | <0.06 µg/mL | 4 µg/mL | <0.06 µg/mL |
| CCC1OC(=O)C(C)C(=O)C(C)C(OC2OC(C)CC(N(C)C)C2O)C(C)(OC)CC(C)C(=O)C(C)C2N(CC3CCCN3Cc3cccc(OC)n3)C(=O)OC12C (stereo not drawn) [12.01] | 8 µg/mL (≈ 9.79 µM) | 1 µg/mL (≈ 1.22 µM) | 2 µg/mL (≈ 2.45 µM) | >64.00 µg/mL | <0.06 µg/mL | – | – | – | – | – |
| CCC1OC(=O)C(C)C(=O)C(C)C(OC2OC(C)CC(N(C)C)C2O)C(C)(OC)CC(C)C(=O)C(C)C2N(CC3CN(Cc4ccn(-c5ccccn5)n4)C3)C(=O)OC12C.O=CO (stereo not drawn) [4.31] | – | – | – | – | – | 0.5 µg/mL | <0.06 µg/mL | 32 µg/mL | >64.00 µg/mL | <0.06 µg/mL |
| CCC1OC(=O)C(C)C(=O)C(C)C(OC2OC(C)CC(N(C)C)C2O)C(C)(OC)CC(C)C(=O)C(C)C2N(C3CN(C(=O)c4cccc(-n5nc(C)cc5C)c4)C3)C(=O)OC12C (stereo not drawn) [Example 2.17, 3-(3,5-dimethyl-1H-pyrazol-1-yl)benzoyl] | – | – | – | – | – | >64.00 µg/mL | 0.25 µg/mL (≈ 0.289 µM) | >64.00 µg/mL | >64.00 µg/mL | <0.06 µg/mL |
| CCC1OC(=O)C(C)C(=O)C(C)C(OC2OC(C)CC(N(C)C)C2O)C(C)(OC)CC(C)C(=O)C(C)C2N(C3CN(S(=O)(=O)c4cccc(C#N)c4)C3)C(=O)OC12C (stereo not drawn) [Example 3.10, 3-descladinosyl-11,12-dideoxy-6-O-methyl-3-oxo-12,11-(oxycarbonyl-(1-(3-cyanobenzenesulfonyl)-azetidin-3-yl)-imino)-erythromycin A] | – | – | – | – | – | 0.25 µg/mL (≈ 0.3 µM) | <0.06 µg/mL | <0.06 µg/mL | 4 µg/mL (≈ 4.8 µM) | <0.06 µg/mL |
| CCC1OC(=O)C(C)C(=O)C(C)C(OC2OC(C)CC(N(C)C)C2O)C(C)(OC)CC(C)C(=O)C(C)C2N(CC3CCCN3C(=O)c3cccc4ncoc34)C(=O)OC12C (stereo not drawn) [10.23] | 8 µg/mL (≈ 9.51 µM) | 1 µg/mL (≈ 1.19 µM) | <0.06 µg/mL | >64.00 µg/mL | <0.06 µg/mL | – | – | – | – | – |
| CCC1OC(=O)C(C)(F)C(=O)C(C)C(OC2OC(C)CC(N(C)C)C2O)C(C)(OC)CC(C)C(=O)C(C)C2N(C3CN(C(C)c4ccnc5ncccc45)C3)C(=O)OC12C (stereo not drawn) [Example 1.32, 3-descladinosyl-11,12-dideoxy-2-fluoro-6-O-methyl-3-oxo-12,11-(oxycarbonyl-(1-(1R-(1,8-naphthyridin-4-yl)-ethyl)-azetidin-3-yl)-imino)-erythromycin A] | – | – | – | – | – | 0.5 µg/mL (≈ 0.594 µM) | 0.25 µg/mL (≈ 0.297 µM) | <0.06 µg/mL | 0.12 µg/mL (≈ 0.143 µM) | <0.06 µg/mL |
| CCC1OC(=O)C(C)C(=O)C(C)C(OC2OC(C)CC(N(C)C)C2O)C(C)(OC)CC(C)C(=O)C(C)C2N(CC3CCCN3C(=O)c3ccc4[nH]ncc4c3)C(=O)OC12C (stereo not drawn) [10.32] | 1 µg/mL (≈ 1.19 µM) | 0.5 µg/mL (≈ 0.595 µM) | <0.06 µg/mL | >64.00 µg/mL | <0.06 µg/mL | – | – | – | – | – |
| CCC1OC(=O)C(C)C(=O)C(C)C(OC2OC(C)CC(N(C)C)C2O)C(C)(OC)CC(C)C(=O)C(C)C2N(CC3CCN(C(=O)c4cnc5ccccc5c4)C3)C(=O)OC12C (stereo not drawn) [11.17] | 4 µg/mL (≈ 4.7 µM) | 2 µg/mL (≈ 2.35 µM) | 8 µg/mL (≈ 9.4 µM) | >64.00 µg/mL | <0.06 µg/mL | – | – | – | – | – |
| CCC1OC(=O)C(C)C(=O)C(C)C(OC2OC(C)CC(N(C)C)C2O)C(C)(OC)CC(C)C(=O)C(C)C2N(C3CN(Cc4ccnc5c4ncn5C)C3)C(=O)OC12C (stereo not drawn) [Example 1.93, 3-descladinosyl-11,12-dideoxy-6-O-methyl-3-oxo-12,11-(oxycarbonyl-(1-(3-methyl-3H-imidazo[4,5-b]pyridine-7-methyl)-azetidin-3-yl)-imino)-erythromycin A] | – | – | – | – | – | 2 µg/mL (≈ 2.46 µM) | 1 µg/mL (≈ 1.23 µM) | <0.063 µg/mL | 1 µg/mL (≈ 1.23 µM) | <0.063 µg/mL |
